# In US10857136B2, “Compounds for use in the prevention and/or treatment of non-alcoholic fat liver disease and non-alcoholic steatohepatitis” (SJT MOLECULAR RESEARCH, SL, priority 2017, dated 2020):
# Assays:
# Format in all cases: in vivo
# [1] = system: DIO-NASH mice (C57Bl/6J male mice); experiment: Triglycerides and cholesterol liver content, 8 weeks assay in DIO-NASH mice; conditions: 50 mg/kg, p.o., b.i.d., vs DIO-NASH vehicle
# Excerpt: (§1) The DIO-NASH mouse model is fed a high fat diet that results on non-alcoholic fat liver disease and are based on C57Bl/6J mice put on a 40% high fat diet prior to the assays. For the assessment of effect of the compounds of the invention in liver lipid content in non-alcoholic fat liver disease, 34 C57Bl/6J male mice (5-week-old at delivery), obtained from Janvier, France, were used. The DIO-NASH mice group were put on high fat diet (40% AMLN diet, D09100301 Research Diets, USA) and a control group (LEAN-CHOW) was put on a regular chow diet (Altromin 1324, Brogaarden, Denmark) for 35 weeks prior to the study.
# To assess the effect of compound 4a on hepatic triglyceride or cholesterol content in animals with non-alcoholic fat liver disease, DIO-NASH mice (C57Bl/6J male mice) were treated with a hydrochloride salt of compound 4a during 8 weeks (50 mg/kg, p.o., b.i.d.), versus a pathological control of DIO-NASH mice and a non-pathological control LEAN-CHOW mice, both treated with the vehicle (0.9% NaCl). […]
# The triglyceride content in liver was determined using the Triglyceride reagent (Cat. no. 22-045-795, Roche Diagnostics, Germany) on a Cobas™ C-501 autoanalyzer. Homogenized liver tissue was heated to 80-100° C. twice, centrifuged in a microcentrifuge and the triglyceride content was measured in the supernatant.
# [2] = system: DIO-NASH mice (C57Bl/6J male mice); experiment: Total fat content in liver (morphometry, H&E), 8 weeks assay in DIO-NASH mice; conditions: 50 mg/kg, p.o., b.i.d., vs DIO-NASH vehicle
# Excerpt: as §1
# The animals (kept in single housings) were checked minimum once daily where signs of abnormal behavior, abnormal locomotor activity, ataxia or clinical signs of disease (lack of grooming, raised fur, signs of pain upon handling, loss of excessive body-weight) were followed closely. […]
# To assess the effect of compound 4a on hepatic lipid content in mice with non-alcoholic fat liver disease, DIO-NASH mice (C57Bl/6J male mice) were treated with a hydrochloride salt of compound 4a during 8 weeks (50 mg/kg, p.o., b.i.d.), versus a control of DIO-NASH mice treated with saline (0.9% NaCl) and versus LEAN-CHOW mice also treated with saline (0.9% NaCl), […]. Liver lipid content was determined by morphometry. […]
# [3] = system: DIO mice (C57Bl/6 J male mice); experiment: Liver lipid content, 36 days assay in DIO mice (colorimetric kits); conditions: 50 mg/kg orally twice daily, after 36 days, vs saline control
# Procedure: To assess the performance of the compounds disclosed in decreasing hepatic lipid content, DIO mice (C57Bl/6 J male mice) were treated with a hydrochloride salt of compound 4a; and with compound 7a during 36 days, versus a control of DIO mice treated with saline (0.9% NaCl) and versus DIO mice treated with Metformin as a positive control.
# For the assessment, 60 C57Bl/6 J male mice (16-week-old at delivery and 40 g of average weight), obtained from Charles River France, were put on high fat diet for 10 weeks. The animals were housed in ventilated and enriched housing cages (310×125×127 mm^3) throughout the experimental phase. Animals' cages litters were changed at least once a week. Mice were housed in groups of 10 mice on a normal 12 hours light cycle (at 08:00 pm lights were switched off), at 22±2° C. and 50±10% relative humidity. After reception, mice were maintained for three additional acclimation weeks. During the whole assessment (acclimation+treatment phase) a high fat diet (D12492 purchased from Research Diet Inc; 60% fat) and tap water were provided ad libitum.
# After the acclimation period, mice were fasted for 6 hours and blood glucose and plasma insulin were measured. Ten animals, those with lower blood glucose/plasma insulin, were discarded from the study. Then, the others were randomized into 5 homogenous groups (n=10 mice per group) according to their blood glucose/plasma insulin levels (HOMA-IR) and body weight. Mice were treated orally twice daily for 36 days with either saline solution (control group), SJT test compound (4a, 7a; 50 mg/kg) or metformin (150 mg/kg).
# Finally, mice were sacrificed, and liver was collected, weighted and stored at −80° C. for additional analysis. Liver samples were dissected for liver lipids assay. Liver lipids were assayed using colorimetric commercial assay kits, from liver samples homogenate after lipid solubilization in deoxycholate as described by Miao et al., J Lipid Res, 2004, 45, 1410-17. Samples were homogenized with an ultrasound probe with 500 μl distilled water during few seconds. Then cholic acid at 1% is added to make lipids soluble. The measurement of the different lipids was then performed using colorimetric kits from Sobioda, France.
structure (smiles),measurement,setting,value
"COc1ccc(-c2nc(C(=O)NCCN)cc3c2[nH]c2ccccc23)cc1 [Compound 4a, N(-ethylamine)-1-benzosubstituted-β-carboline-3-carboxamide]",liver cholesterol levels,[1],reduced liver cholesterol levels
same,liver triglyceride levels,[1],reduced liver triglyceride levels
same,steatosis in representative images of liver morphology (H&E),[2],diminished the steatosis
same,liver lipid content (steatosis) determined by morphometry,[2]; p<0.001,reduced liver lipid content
same,hepatic cholesterol,[3],lower lipid levels than untreated control animals
same,hepatic fatty acids,[3],lower lipid levels than untreated control animals
same,hepatic triglycerides,[3],lower lipid levels than untreated control animals
